6 compounds from US6939968B2, “Atropisomers of 3-substituted-4-arylquinolin-2-one derivatives” (Bristol-Myers Squibb Company, priority 2002, dated 2005) can be followed below.

Where “and” joins values, the source holds several entries; their conditions need not be identical. Equal entries are not always repeated.

Test [1] concerns cloned mammalian (mSlo or hSlo) BK channels heterologously expressed in Xenopus oocytes. The experiment in a line: BK-mediated outward current in Xenopus oocytes, two-electrode voltage clamp. In kind it is cell-based. The settings on record: for Current: compounds at 10 μM, IBTX at supramaximal concentration (50-100 nM); for BK Current: at 10 μM, percent increase over BK current in controls, voltage step to +140 mV, IBTX-sensitive current. Here is the method: The ability of the compounds of the invention to open BK channels and increase whole-cell outward (K+) BK-mediated currents was assessed under voltage-clamp conditions by determining their ability to increase cloned mammalian (mSlo or hSlo) BK—mediated outward current heterologously expressed in Xenopus oocytes [Butler, A., et al., Science, 261: 221-224 (1993); Dworetzky, S. I., et al., Mol. Brain Res., 27: 189-193 (1994); Gribkoff, V. K., et al., Mol. Pharmacol., 50:206-217 (1996)]. The two BK constructs employed represent nearly structurally identical homologous proteins, and have proven to be pharmacologically indistinguishable in our tests. To isolate BK current from native (background, non-BK) current, the specific and potent BK channel-blocking toxin iberiotoxin (IBTX) [Galvez, A., et al., J. Biol. Chem., 265: 11083-11090 (1990)] was employed at a supramaximal concentration, e.g., 50-100 nanomolar (“nM”). The relative contribution of BK channel-mediated current to total outward current was determined by subtraction of the current remaining in the presence of IBTX (non-BK current) from the current profiles obtained in all other experimental conditions (control, drug, and wash) [Gribkoff, V. K. et al., Mol. Pharmacol., 50:206-217 (1996)]. […] All compounds were tested in 5-10 oocytes and are reported at the indicated concentration of 10 micromolar (“μM”); the effect of the selected compounds of the invention on BK current was expressed as the percent of control IBTX-sensitive current at a single transmembrane voltage (+140 mV) and is listed in Table 1. Recordings were accomplished using standard two-electrode voltage clamp techniques [Stuhmer, W., et al., Methods in Enzymology, Vol. 207: 319-339 (1992)]; voltage-clamp protocols consisted of 500-750 milliseconds (“ms”) duration step depolarizations, from a holding potential of −60 mV, to a final voltage up to +140 mV in 20 mV steps. Table 2 lists the current-voltage (I-V) data for two compounds of the invention, applied to oocytes at a concentration of 10 μM. The experimental media (modified Barth's solution) consisted of millimolar (“mM”): NaCl (88), NaHCO3 (2.4), KCl (1.0), HEPES (10), MgSO4 (0.82), Ca(NO3)2 (0.33), CaCl2 (0.41); pH 7.5.
(In two-electrode clamp one electrode senses voltage and the other passes current.)

Test [2] deals with stress-induced colonic motility (fecal pellet output). Put plainly: Air jet stress-induced colonic motor activity. The format is in vivo. The settings on record: rats, 20 mg/kg ip. Here is the method:
Environmental stress is believed to play a role in irritable bowel syndrome and other altered bowel motility states. […] Based on this, we tested the hypothesis that maxi-K^+potassium channel openers of the present invention can be effective in reducing stress-induced acceleration in colonic motility, as indexed by fecal pellet output.
Rats were randomly divided into 2 groups and treated with vehicle (polyethylene glycol (400 grams per mole), 1 mL/kg, ip) or the compound of Example 1 in racemate form (20 mg/kg) at time zero. At 1.5 hr post-treatment, each rat was partially restrained in plexiglas container and was subjected to air-jet stress. This was brought about by exposing each of the partially-restrained animals to 3-4 episodes of 2 minute long air jets with an interval of 8-10 minutes between episodes. The fecal output was collected and the wet weight was recorded. The data were analyzed by combining individual output within each group to calculate a group mean and the means were compared using a statistical test (unpaired, two-tailed t-test; p<0.05).

With `O=c1[nH]c2ccc(C(F)(F)F)cc2c(-c2cc(Cl)ccc2O)c1CCO` (racemic) [Example 1, 4-(5-Chloro-2-hydroxyphenyl)-3-(2-hydroxyethyl)-6 (trifluoromethyl)-2(1H)-Quinolinone], the Current in test [1] (voltage 0 mV) is on record as 0.2 μA; in test [1] (voltage 20 mV) it was 0.7 μA; in test [1] (voltage 40 mV), 1.8 μA; in test [1] (voltage 60 mV), 3.3 μA; in test [1] (voltage 80 mV), 4.9 μA; in test [1] (voltage 100 mV), 6.6 μA. In addition, the Current was determined as 8.4 μA in test [1] (voltage 120 mV), 10.2 μA in test [1] (voltage 140 mV), 0 μA in test [1] (voltage −20 mV) and 0 μA in test [1] (voltage −40 mV). For the same compound, in test [2] (air-jet stress 1.5 hr post-treatment, vehicle group 0.37 grams), the “fecal output (wet weight, group mean)” value is on record as 0.03 grams. The “animals showing a defecatory response to air-jet” value in test [2] (vehicle group 9/12) is listed as 3 out of 11.
On to `O=c1[nH]c2ccc(C(F)(F)F)cc2c(-c2cc(Cl)ccc2O)c1CCO` (single isomer, unassigned) [Example 3-atropisomer A, (−) 4-(5-Chloro-2-hydroxy-phenyl)-3-(2-hydroxy-ethyl)-6-trifluoromethyl-1H-quinolin2-one], for which the “BK Current” value in test [1] (listed as 3-atropisomer A) came out at 291.8 ± 26.8%.
Turning to `O=c1[nH]c2ccc(C(F)(F)F)cc2c(-c2cc(Cl)ccc2O)c1CCO` (single isomer, unassigned) [Example 3-atropisomer B, (+) 4-(5-Chloro-2-hydroxy-phenyl)-3-(2-hydroxy-ethyl)-6-trifluoromethyl-1H-quinolin2-one], in test [1] (listed as 3-atropisomer B), the “BK Current” value came out at 213.9 ± 21.4%.
For the compound `Cn1c(=O)c(CCO)c(-c2cc(Cl)ccc2O)c2cc(C(F)(F)F)ccc21` (single isomer, unassigned) [Example 5-atropisomer A, (−) 4-(5-Chloro-2-hydroxy-phenyl)-1-methyl-3-(2-hydroxy-ethyl)-6-trifluoromethyl-1H-quinolin2-one], the “BK Current” value in test [1] is 360.8 ± 29.6% and 183.6 ± 9.50%.
Take `Cn1c(=O)c(CCO)c(-c2cc(Cl)ccc2O)c2cc(C(F)(F)F)ccc21` [Example 2]: the Current turned out to be 0 μA in test [1] (voltage 0 mV); 0 μA in test [1] (voltage 20 mV); 0.2 μA in test [1] (voltage 40 mV); 0.6 μA in test [1] (voltage 60 mV); 1.4 μA in test [1] (voltage 80 mV); 2.5 μA in test [1] (voltage 100 mV). Moreover, the Current in test [1] (voltage 120 mV) stood at 3.9 μA; in test [1] (voltage 140 mV), 5.6 μA; in test [1] (voltage −20 mV) it was 0 μA; in test [1] (voltage −40 mV), 0 μA.
With “iberiotoxin (QFTDVDCSVSKECWSVCKDLFGVDRGKCMGKKCRCYQ; UniProt P24663 1-37, looked up) [IBTX, reference compound]”, the Current in test [1] (voltage 0 mV) was determined as 0 μA; in test [1] (voltage 20 mV), 0 μA; in test [1] (voltage 40 mV), 0 μA; in test [1] (voltage 60 mV), 0 μA; in test [1] (voltage 80 mV) it was 0.1 μA; in test [1] (voltage 100 mV), 0.2 μA. Further, the Current was 0.6 μA in test [1] (voltage 120 mV), 1.2 μA in test [1] (voltage 140 mV), 0 μA in test [1] (voltage −20 mV) and 0 μA in test [1] (voltage −40 mV).
